# Source: patent publication US12486300B2, “Mithramycin oxime derivatives having increased selectivity and anti-cancer activity” (University of Kentucky Research Foundation, priority 2018, dated 2025)
# Test system: TC32 Ewing sarcoma cells, expressing EWS-FLI1
# Test: Growth inhibition assay, TC32 cells
# Assay type: cell-based
# Conditions: ratio of GI50 PC3 to TC32
# Method: Growth inhibition assay to assess cytotoxicity in ETS vs non-ETS expressing cells. Cells were seeded in clear 96-well plates (VWR, Radnor, PA). Seeding densities were optimized for each cell line to support 5 days of linear growth. Following a 24 hours attachment period, cells in duplicate wells were treated with half-log increments of respective compounds (0 nM and 0.3 nM-10 μM). Working stocks were prepared from an initial 10 mM drug stock diluted in either 100% ethanol or dimethyl sulfoxide (DMSO). All wells contained a final concentration of 0.1% (v/v) respective organic solvent. Immediately following treatment, cell viability was measured for vehicle control (Day 0) wells. Cell viability was measured in the remaining wells after 72 hours of incubation with compound or vehicle control (Day 3).
# Percent viability, relative to the initial cell seeding concentration, was calculated by ((TreatmentDay3−Vehicle ControlDay0)/(Vehicle ControlDay3−Vehicle ControlDay0))×100. Percent cell viability was plotted as a function of compound concentration (Log [M]) and the data were fit using a 3-parameter non-linear model with fixed Hill slope constant and 4-parameter non-linear model with variable Hill slope constant. The model with the best curve fit was used to estimate the GI50 in GraphPad Prism 7.0 software (GraphPad Software, La Jolla, CA). The 3-parameter equation used was Y=Bottom+(Top−Bottom)/(1+10[…]((X−Log[IC50]))). The 4-parameter equation used was Y=Bottom+(Top−Bottom)/(1+10[…]((Log[IC50]−X)*Hillslope)). Top and Bottom are plateaus in the units of the Y-axis (response). IC50 is the response (Y-axis) halfway between Top and Bottom plateaus.
# All compounds were tested at least once in multi-well replicates and each experiment included one a control compound (i.e., MTM) to ensure the stable response of the cell lines. The selectivity index was estimated by determining the ratio of GI50 estimates between ETS fusion negative and ETS fusion positive cell lines.
row,SMILES,PC:TC32 (cellular selectivity)
1,COC(=O)C(Cc1ccccc1)NC(=O)CON=C(C(O)C(C)O)C(OC)C1Cc2cc3cc(OC4CC(OC5CC(O)C(O)C(C)O5)C(O)C(C)O4)c(C)c(O)c3c(O)c2C(=O)C1OC1CC(OC2CC(OC3CC(C)(O)C(O)C(C)O3)C(O)C(C)O2)C(O)C(C)O1 (stereo not drawn) [MTM (30)],2.08
2,COC(C(=NOCC(=O)NCc1ccccc1)C(O)C(C)O)C1Cc2cc3cc(OC4CC(OC5CC(O)C(O)C(C)O5)C(O)C(C)O4)c(C)c(O)c3c(O)c2C(=O)C1OC1CC(OC2CC(OC3CC(C)(O)C(O)C(C)O3)C(O)C(C)O2)C(O)C(C)O1 (stereo not drawn) [MTM (31)],1.83
3,COC(C(=NOCC(=O)Nc1ccccc1)C(O)C(C)O)C1Cc2cc3cc(OC4CC(OC5CC(O)C(O)C(C)O5)C(O)C(C)O4)c(C)c(O)c3c(O)c2C(=O)C1OC1CC(OC2CC(OC3CC(C)(O)C(O)C(C)O3)C(O)C(C)O2)C(O)C(C)O1 (stereo not drawn) [MTM (32)],1.11
4,COC(C(=NNC(=O)CCCCCN1C(=O)C=CC1=O)C(O)C(C)O)C1Cc2cc3cc(OC4CC(OC5CC(O)C(O)C(C)O5)C(O)C(C)O4)c(C)c(O)c3c(O)c2C(=O)C1OC1CC(OC2CC(OC3CC(C)(O)C(O)C(C)O3)C(O)C(C)O2)C(O)C(C)O1 (stereo not drawn) [MTM (33)],3.9
5,COC(=O)C(Cc1c[nH]c2ccccc12)NC(=O)C(C)NC(=O)CON=C(C(O)C(C)O)C(OC)C1Cc2cc3cc(OC4CC(OC5CC(O)C(O)C(C)O5)C(O)C(C)O4)c(C)c(O)c3c(O)c2C(=O)C1OC1CC(OC2CC(OC3CC(C)(O)C(O)C(C)O3)C(O)C(C)O2)C(O)C(C)O1 (stereo not drawn) [MTM (34)],4.28
6,COC(C(=NOCC(=O)NC(Cc1c[nH]c2ccccc12)C(=O)O)C(O)C(C)O)C1Cc2cc3cc(OC4CC(OC5CC(O)C(O)C(C)O5)C(O)C(C)O4)c(C)c(O)c3c(O)c2C(=O)C1OC1CC(OC2CC(OC3CC(C)(O)C(O)C(C)O3)C(O)C(C)O2)C(O)C(C)O1 (stereo not drawn) [MTM (39)],7.4
7,COC(C(=NOCC(=O)NC(Cc1c[nH]c2ccccc12)C(=O)NCCc1c[nH]c2ccccc12)C(O)C(C)O)C1Cc2cc3cc(OC4CC(OC5CC(O)C(O)C(C)O5)C(O)C(C)O4)c(C)c(O)c3c(O)c2C(=O)C1OC1CC(OC2CC(OC3CC(C)(O)C(O)C(C)O3)C(O)C(C)O2)C(O)C(C)O1 (stereo not drawn) [MTM (43)],2.6
8,COC(C(=NOCC(=O)Nc1ccncc1)C(O)C(C)O)C1Cc2cc3cc(OC4CC(OC5CC(O)C(O)C(C)O5)C(O)C(C)O4)c(C)c(O)c3c(O)c2C(=O)C1OC1CC(OC2CC(OC3CC(C)(O)C(O)C(C)O3)C(O)C(C)O2)C(O)C(C)O1 (stereo not drawn) [MTM (45)],2.4
9,COC(C(=NOCC(=O)NC(Cc1c[nH]c2ccccc12)C(=O)Nc1ccccc1)C(O)C(C)O)C1Cc2cc3cc(OC4CC(OC5CC(O)C(O)C(C)O5)C(O)C(C)O4)c(C)c(O)c3c(O)c2C(=O)C1OC1CC(OC2CC(OC3CC(C)(O)C(O)C(C)O3)C(O)C(C)O2)C(O)C(C)O1 (stereo not drawn) [MTM (47)],2.7
10,COC(C(=NOCC(=O)NC(Cc1c[nH]c2ccccc12)C(=O)NCc1c[nH]c2ccccc12)C(O)C(C)O)C1Cc2cc3cc(OC4CC(OC5CC(O)C(O)C(C)O5)C(O)C(C)O4)c(C)c(O)c3c(O)c2C(=O)C1OC1CC(OC2CC(OC3CC(C)(O)C(O)C(C)O3)C(O)C(C)O2)C(O)C(C)O1 (stereo not drawn) [MTM (48)],2.30
11,COC(C(=NOCC(=O)Nc1cccnc1)C(O)C(C)O)C1Cc2cc3cc(OC4CC(OC5CC(O)C(O)C(C)O5)C(O)C(C)O4)c(C)c(O)c3c(O)c2C(=O)C1OC1CC(OC2CC(OC3CC(C)(O)C(O)C(C)O3)C(O)C(C)O2)C(O)C(C)O1 (stereo not drawn) [MTM (49)],2.4
12,COC(C(=NOCC(=O)Nc1cncnc1)C(O)C(C)O)C1Cc2cc3cc(OC4CC(OC5CC(O)C(O)C(C)O5)C(O)C(C)O4)c(C)c(O)c3c(O)c2C(=O)C1OC1CC(OC2CC(OC3CC(C)(O)C(O)C(C)O3)C(O)C(C)O2)C(O)C(C)O1 (stereo not drawn) [MTM (50)],2.7
